Results published in ChEMBL document CHEMBL1201862, “PubChem BioAssay data set” (2004).
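Assay format: 96-well plates, 48-hour exposure. GI50 is the concentration that inhibits growth by half.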 Active and inactive are the calls of the source. Cut-off read from the data, not from the text of the source: active = GI50 up to about 1.1 µM and inactive = higher. Where a SMILES comes first, the peptide text is derived from it. [ ]: non-standard residue; d: D form. The star is where a group is joined. ξ: configuration not given here. ξD = NC(CC(=O)O)C(=O)O; Boc = CC(C)(C)OC(=O)*; Aib = CC(C)(N)C(=O)O; OtBu = CC(C)(C)O*

How the values were obtained:
Test in all cases: NCI anticancer screen, dose series, 48 h
T47D = test system: T47D
OVCAR-4 = test system: OVCAR-4
Malme-3M = test system: Malme-3M
UACC-62 = test system: UACC-62
TK-10 = test system: TK-10
ACHN = test system: ACHN
SK-OV-3 = test system: SK-OV-3
HCT-116 = test system: HCT-116
UACC-257 = test system: UACC-257
HOP-62 = test system: HOP-62
EKVX = test system: EKVX
HT-29 = test system: HT-29
SW-620 = test system: SW-620
M14 = test system: M14
SK-MEL-5 = test system: SK-MEL-5
OVCAR-3 = test system: OVCAR-3
SNB-75 = test system: SNB-75
CAKI-1 = test system: CAKI-1
LOX IMVI = test system: LOX IMVI
OVCAR-5 = test system: OVCAR-5

Measured: GI50

COC(=O)C(C)(C)NC(=O)C(C)(C)NC(=O)C(CC(=O)OC(C)(C)C)NC(=O)OC(C)(C)C (stereo not given) (Boc-[ξD](OtBu)-[Aib]-[Aib]-OMe)
inactive: T47D > 100 µM | OVCAR-4 > 100 µM | Malme-3M > 100 µM | UACC-62 > 100 µM | TK-10 > 100 µM | ACHN > 100 µM | SK-OV-3 > 100 µM | HCT-116 > 100 µM | UACC-257 > 100 µM | HOP-62 > 100 µM | EKVX > 100 µM | HT-29 > 100 µM | SW-620 > 100 µM | M14 > 100 µM | SK-MEL-5 > 100 µM | OVCAR-3 > 100 µM | SNB-75 > 100 µM | CAKI-1 > 100 µM | LOX IMVI > 100 µM | OVCAR-5 > 100 µM
